Results taken from patent US11377441B2, “Covalent inhibitors of KRAS” (Araxes Pharma LLC, priority 2017, dated 2022).

molecular target: T1, KRAS G12C 1-169, his-tagged protein, GDP-loaded (Homo sapiens, UniProt P01116, G12C); assay: Biochemical assay: covalent modification of KRAS G12C measured by mass spectrometry (RapidFire/TOF or Q-Exactive); format: binding; conditions: covalent binding to (modification of) KRAS G12C after a ten minute incubation period
T1 construct: KRAS G12C 1-169, his-tagged protein, GDP-loaded
Outline: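 Intact-mass readout (TOF or Q-Exactive, charge-envelope deconvolution) gives percent covalent adduct from modified and unmodified species. Compound at 10, 30 or 100 μM was incubated at room temperature for 10 min to 24 h with 2 μM or 0.5 μM GDP-bound KRAS G12C 1-169 in Hepes/NaCl/MgCl2 buffer, then acid-quenched.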

Structure (SMILES)	Binding %
C=CC(=O)N1C[C@H](C)N(c2nc(OCCN3CCCC3)nc3c(F)c(-c4c(C)ccc5[nH]nc(N)c45)c(Cl)cc23)C[C@H]1C (atropisomer, axis not shown) [Compound 53, 1-((2R,5S)-4-((S)-7-(3-amino-5-methyl-1H-indazol-4-yl)-6-chloro-8-fluoro-2-(2-(pyrrolidin-1-yl)ethoxy)quinazolin-4-yl)-2,5-dimethylpiperazin-1-yl)prop-2-en-1-one]	+ (+ indicates binding activity greater than 0% and up to 50%)
C=CC(=O)N1C[C@H](C)N(c2nc(N3CC(NC)C3)nc3c(F)c(-c4c(C)ccc5[nH]nc(C6CC6)c45)c(Cl)cc23)C[C@H]1C (atropisomer, axis not shown) [Compound 210, 1-((2R,5S)-4-((S)-6-chloro-7-(3-cyclopropyl-5-methyl-1H-indazol-4-yl)-8-fluoro-2-(3-(methylamino)azetidin-1-yl)quinazolin-4-yl)-2,5-dimethylpiperazin-1-yl)prop-2-en-1-one]	+ (+ indicates binding activity greater than 0% and up to 50%)
C=CC(=O)N1C[C@H](C)N(c2nc(N3CC(N(C)C)C3)nc3c(F)c(-c4c(C)ccc5cnn(C)c45)c(Cl)cc23)C[C@@H]1C (atropisomer, axis not shown) [Compound 249, 1-((2S,5S)-4-((R)-6-chloro-7-(1,6-dimethyl-1H-indazol-7-yl)-2-(3-(dimethylamino)azetidin-1-yl)-8-fluoroquinazolin-4-yl)-2,5-dimethylpiperazin-1-yl)prop-2-en-1-one]	+ (+ indicates binding activity greater than 0% and up to 50%)
C=CC(=O)N1C[C@H](C)N(c2nc(N3CC(N(C)C)C3)nc3c(F)c(-c4c(C)ccc5cnn(C)c45)c(Cl)cc23)C[C@@H]1C (atropisomer, axis not shown) [Compound 248, 1-((2S,5S)-4-((S)-6-chloro-7-(1,6-dimethyl-1H-indazol-7-yl)-2-(3-(dimethylamino)azetidin-1-yl)-8-fluoroquinazolin-4-yl)-2,5-dimethylpiperazin-1-yl)prop-2-en-1-one]	+ (+ indicates binding activity greater than 0% and up to 50%)
C=CC(=O)N1C[C@H](C)N(c2nc(OC[C@@H]3C[C@H](OC)CN3C)nc3c(F)c(-c4c(C)ccc5cnn(C)c45)c(Cl)cc23)C[C@H]1C [Compound 197, 1-((2R,5S)-4-(6-chloro-7-(1,6-dimethyl-1H-indazol-7-yl)-8-fluoro-2-(((2S,4S)-4-methoxy-1-methylpyrrolidin-2-yl)methoxy)quinazolin-4-yl)-2,5-dimethylpiperazin-1-yl)prop-2-en-1-one]	+++ (+++ indicates binding activity greater than 80%)
C=CC(=O)N1C[C@H](C)N(c2nc(N3CC(N(C)C)C3)nc3c(F)c(-c4c(C)ccc5ccn(C)c45)c(Cl)cc23)C[C@H]1C [Compound 202, 1-((2R,5S)-4-((S)-6-chloro-7-(1,6-dimethyl-1H-indol-7-yl)-2-(3-(dimethylamino)azetidin-1-yl)-8-fluoroquinazolin-4-yl)-2,5-dimethylpiperazin-1-yl)prop-2-en-1-one]	+ (+ indicates binding activity greater than 0% and up to 50%)
C=CC(=O)N1C[C@H](C)N(c2nc(OC[C@H]3CCCN3C)nc3c(F)c(-c4c(C)ccc5cnn(C)c45)c(Cl)cc23)C[C@H]1C (atropisomer, axis not shown) [Compound 261, 1-((2R,5S)-4-((S)-6-chloro-7-(1,6-dimethyl-1H-indazol-7-yl)-8-fluoro-2-(((R)-1-methylpyrrolidin-2-yl)methoxy)quinazolin-4-yl)-2,5-dimethylpiperazin-1-yl)prop-2-en-1-one]	+++ (+++ indicates binding activity greater than 80%)
C=CC(=O)N1C[C@H](C)N(c2nc(OC[C@H]3CN(C)CCO3)nc3c(F)c(-c4c(C)ccc5cnn(C)c45)c(Cl)cc23)C[C@H]1C [Compound 186, 1-((2R,5S)-4-(6-chloro-7-(1,6-dimethyl-1H-indazol-7-yl)-8-fluoro-2-(((R)-4-methylmorpholin-2-yl)methoxy)quinazolin-4-yl)-2,5-dimethylpiperazin-1-yl)prop-2-en-1-one]	+++ (+++ indicates binding activity greater than 80%)
C=CC(=O)N1C[C@H](C)N(c2nc(N3CC(N(C)C)C3)nc3c(F)c(N4CCCc5ccccc54)c(Cl)cc23)C[C@H]1C [Compound 265, 1-((2R,5S)-4-(6-chloro-7-(3,4-dihydroquinolin-1(2H)-yl)-2-(3-(dimethylamino)azetidin-1-yl)-8-fluoroquinazolin-4-yl)-2,5-dimethylpiperazin-1-yl)prop-2-en-1-one]	++ (++ indicates binding activity from 50 to 80%)
C=CC(=O)N1C[C@H](C)N(c2nc(N3CC(NC)C3)nc3c(F)c(-c4c(C)ccc5cnn(C)c45)c(Cl)cc23)C[C@H]1C (atropisomer, axis not shown) [Compound 206, 1-((2R,5S)-4-((R)-6-chloro-7-(1,6-dimethyl-1H-indazol-7-yl)-8-fluoro-2-(3-(methylamino)azetidin-1-yl)quinazolin-4-yl)-2,5-dimethylpiperazin-1-yl)prop-2-en-1-one]	+++ (+++ indicates binding activity greater than 80%)
C=CC(=O)N1C[C@H](C)N(c2nc(OCCCN(C)C)nc3c(F)c(-c4c(C)ccc5cnn(C)c45)c(Cl)cc23)C[C@H]1C (atropisomer, axis not shown) [Compound 153, 1-((2R,5S)-4-((S)-6-chloro-7-(1,6-dimethyl-1H-indazol-7-yl)-2-(3-(dimethylamino)pro-poxy)-8-fluoroquinazolin-4-yl)-2,5-dimethylpiperazin-1-yl)prop-2-en-1-one]	+ (+ indicates binding activity greater than 0% and up to 50%)
C=CC(=O)N1C[C@H](C)N(c2nc(NCCC(=O)N3CCCC3)nc3c(F)c(-c4c(C)ccc5onc(N)c45)c(Cl)cc23)C[C@H]1C [Compound 93, 1-((2R,5S)-4-(7-(3-amino-5-methylbenzo[d]isoxazol-4-yl)-6-chloro-8-fluoro-2-(3-oxo-3-(pyrrolidin-1-yl)propylamino)quinazo-lin-4-yl)-2,5-dimethylpiperazin-1-yl)prop-2-en-1-one]	++ (++ indicates binding activity from 50 to 80%)
C=CC(=O)N1C[C@H](C)N(c2nc(OCCN3CCOCC3)nc3c(F)c(-c4c(C)ccc5[nH]nc(C6CC6)c45)c(Cl)cc23)C[C@H]1C (atropisomer, axis not shown) [Compound 112, 1-((2R,5S)-4-((S)-6-chloro-7-(3-cyclopropyl-5-methyl-1H-indazol-4-yl)-8-fluoro-2-(2-morpholinoethoxy)quina-zolin-4-yl)-2,5-dimethylpiperazin-1-yl)prop-2-en-1-one]	+ (+ indicates binding activity greater than 0% and up to 50%)
C=CC(=O)N1C[C@H](C)N(c2nc(OCCN3CCC(F)(F)C3)nc3c(F)c(-c4c(C)ccc5cnn(C)c45)c(Cl)cc23)C[C@H]1C (atropisomer, axis not shown) [Compound 135, 1-((2R,5S)-4-((S)-6-chloro-2-(2-(3,3-difluoropyrrolidin-1-yl)ethoxy)-7-(1,6-dimethyl-1H-indazol-7-yl)-8-fluoroquinazolin-4-yl)-2,5-dimethylpiperazin-1-yl)prop-2-en-1-one]	+ (+ indicates binding activity greater than 0% and up to 50%)
C=CC(=O)N1C[C@H](C)N(c2nc(N3CC(N)C3)nc3c(F)c(-c4c(C)ccc5[nH]nc(C6CC6)c45)c(Cl)cc23)C[C@H]1C [Compound 126, 1-((2R,5S)-4-(2-(3-aminoazetidin-1-yl)-6-chloro-7-(3-cyclopropyl-5-methyl-1H-indazol-4-yl)-8-fluoroquinazolin-4-yl)-2,5-dimethylpiperazin-1-yl)prop-2-en-1-one]	+++ (+++ indicates binding activity greater than 80%)
C=CC(=O)N1C[C@H](C)N(c2nc(N3CC(N(C)C)C3)nc3c(F)c(-c4c(C)ccc5nc(C)[nH]c45)c(Cl)cc23)C[C@H]1C [Compound 52, 1-((2R,5S)-4-(6-chloro-7-(2,6-dimethyl-1H-benzo[d]imidazol-7-yl)-2-(3-(dimethylamino)azetidin-1-yl)-8-fluoroquinazolin-4-yl)-2,5-dimethylpiperazin-1-yl)prop-2-en-1-one]	++ (++ indicates binding activity from 50 to 80%)
C=CC(=O)N1C[C@H](C)N(c2nc(OC[C@H]3CCCN3C)nc3c(F)c(-c4c(C)ccc5[nH]nc(C)c45)c(Cl)cc23)C[C@H]1C [Compound 161, 1-((2R,5S)-4-(6-chloro-7-(3,5-dimethyl-1H-indazol-4-yl)-8-fluoro-2-(((R)-1-methylpyrrolidin-2-yl)methoxy)quinazolin-4-yl)-2,5-dimethylpiperazin-1-yl)prop-2-en-1-one]	+++ (+++ indicates binding activity greater than 80%)
C=CC(=O)N1CCN(c2nc(N3CC(N(C)C)C3)nc3c(F)c(-c4c(C)ccc5[nH]nc(N)c45)c(Cl)cc23)CC1 (atropisomer, axis not shown) [Compound 38, (S)-1-(4-(7-(3-amino-5-methyl-1H-indazol-4-yl)-6-chloro-2-(3-(dimethylamino)azetidin-1-yl)-8-fluoroquinazolin-4-yl)piperazin-1-yl)prop-2-en-1-one]	+ (+ indicates binding activity greater than 0% and up to 50%)
[2H]C([2H])([2H])N(C1CN(c2nc(N3C[C@@H](C)N(C(=O)C=C)C[C@@H]3C)c3cc(Cl)c(-c4c(C)ccc5[nH]nc(C6CC6)c45)c(F)c3n2)C1)C([2H])([2H])[2H] (atropisomer, axis not shown) [Compound 224, 1-((2R,5S)-4-((R)-6-chloro-7-(3-cyclopropyl-5-methyl-1H-indazol-4-yl)-2-(3-(di-perdeuteromethylamino)azetidin-1-yl)-8-fluoroquinazolin-4-yl)-2,5-dimethylpiperazin-1-yl)prop-2-en-1-one]	+ (+ indicates binding activity greater than 0% and up to 50%)
